In ChEMBL document CHEMBL4507319 (2021):

Tests used:
[1] = target: mTOR/FKBP12A/FKBP12B (Homo sapiens) (UniProt P62942+P68106+P42345); test: mTOR/FKBP12(h) Eurofins kinase panel; format: protein-complex assay; settings: Compound concentration 1.0 uM
[2] = target: T1, Protein kinase C epsilon type (Homo sapiens) (UniProt Q02156); test: PKCepsilon (h) Eurofins kinase panel; settings: Compound concentration 1.0 uM
T1 sequence (whole entry): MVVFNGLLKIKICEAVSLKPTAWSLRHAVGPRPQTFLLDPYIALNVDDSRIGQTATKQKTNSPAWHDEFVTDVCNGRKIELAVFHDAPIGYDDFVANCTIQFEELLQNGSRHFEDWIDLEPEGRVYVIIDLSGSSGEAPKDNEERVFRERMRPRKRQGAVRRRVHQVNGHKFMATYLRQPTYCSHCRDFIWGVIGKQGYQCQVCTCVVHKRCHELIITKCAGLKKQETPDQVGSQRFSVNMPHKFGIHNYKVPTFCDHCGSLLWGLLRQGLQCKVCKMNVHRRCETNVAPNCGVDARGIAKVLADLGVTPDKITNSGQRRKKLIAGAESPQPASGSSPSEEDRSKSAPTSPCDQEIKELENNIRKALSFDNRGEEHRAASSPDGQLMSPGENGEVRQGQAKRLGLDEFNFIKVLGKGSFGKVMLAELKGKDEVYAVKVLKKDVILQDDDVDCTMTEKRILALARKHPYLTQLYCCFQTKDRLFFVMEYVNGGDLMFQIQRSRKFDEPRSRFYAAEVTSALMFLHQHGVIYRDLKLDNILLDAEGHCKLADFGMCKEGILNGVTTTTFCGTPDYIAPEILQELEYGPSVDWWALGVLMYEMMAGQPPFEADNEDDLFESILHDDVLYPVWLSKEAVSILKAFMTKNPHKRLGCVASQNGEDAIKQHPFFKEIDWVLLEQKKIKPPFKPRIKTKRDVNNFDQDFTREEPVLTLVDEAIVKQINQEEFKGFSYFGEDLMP

[3] = target: T2, Homeodomain-interacting protein kinase 4 (Homo sapiens) (UniProt Q8NE63); test: HIPK4(h) Eurofins kinase panel; settings: Compound concentration 1.0 uM
T2 sequence (whole entry): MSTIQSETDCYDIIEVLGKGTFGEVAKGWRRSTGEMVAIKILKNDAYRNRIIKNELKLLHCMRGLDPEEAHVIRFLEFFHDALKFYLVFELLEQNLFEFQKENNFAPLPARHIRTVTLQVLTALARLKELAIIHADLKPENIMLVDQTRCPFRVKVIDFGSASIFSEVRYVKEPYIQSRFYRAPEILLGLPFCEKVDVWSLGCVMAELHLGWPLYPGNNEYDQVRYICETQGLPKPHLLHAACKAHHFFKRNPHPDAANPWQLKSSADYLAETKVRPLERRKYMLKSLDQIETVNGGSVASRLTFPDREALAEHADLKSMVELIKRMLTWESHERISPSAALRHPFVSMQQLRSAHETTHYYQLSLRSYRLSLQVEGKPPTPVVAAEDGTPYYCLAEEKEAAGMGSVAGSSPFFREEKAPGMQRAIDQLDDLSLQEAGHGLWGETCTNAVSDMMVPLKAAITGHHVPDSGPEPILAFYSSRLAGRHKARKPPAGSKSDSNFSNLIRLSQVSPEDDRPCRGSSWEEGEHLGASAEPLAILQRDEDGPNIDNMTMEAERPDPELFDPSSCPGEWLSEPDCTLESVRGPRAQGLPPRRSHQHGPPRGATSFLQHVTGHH

[4] = target: Protein kinase C eta type (Homo sapiens) (UniProt P24723); test: PKCeta (h) Eurofins kinase panel; settings: Compound concentration 1.0 uM
Sequence of Protein kinase C eta type (Homo sapiens) (P24723 whole entry): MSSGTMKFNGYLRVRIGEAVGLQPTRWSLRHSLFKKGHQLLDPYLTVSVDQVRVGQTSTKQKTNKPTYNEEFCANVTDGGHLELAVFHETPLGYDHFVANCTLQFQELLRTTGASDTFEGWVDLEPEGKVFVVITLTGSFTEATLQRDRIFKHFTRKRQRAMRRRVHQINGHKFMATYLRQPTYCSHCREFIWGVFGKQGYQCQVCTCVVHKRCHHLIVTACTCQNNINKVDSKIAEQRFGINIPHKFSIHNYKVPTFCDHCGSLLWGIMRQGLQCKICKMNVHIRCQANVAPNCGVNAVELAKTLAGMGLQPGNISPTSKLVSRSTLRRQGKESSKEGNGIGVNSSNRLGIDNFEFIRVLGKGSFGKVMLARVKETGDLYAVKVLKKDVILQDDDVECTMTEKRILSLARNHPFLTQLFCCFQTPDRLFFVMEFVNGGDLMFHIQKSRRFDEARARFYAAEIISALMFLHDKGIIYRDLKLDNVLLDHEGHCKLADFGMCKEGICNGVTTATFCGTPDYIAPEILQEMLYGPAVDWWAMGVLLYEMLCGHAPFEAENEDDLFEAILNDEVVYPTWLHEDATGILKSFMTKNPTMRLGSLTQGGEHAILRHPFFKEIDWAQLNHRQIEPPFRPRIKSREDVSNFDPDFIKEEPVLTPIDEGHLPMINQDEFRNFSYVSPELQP

MDA-MB-231 = test: MDA-MB- 231 cell line Proliferation assay; format: functional, Homo sapiens; settings: time 3 day
[5] = target: T3, Mitogen-activated protein kinase 12 (Homo sapiens) (UniProt P53778); test: SAPK3(h) Eurofins kinase panel; settings: Compound concentration 1.0 uM
T3 sequence (whole entry): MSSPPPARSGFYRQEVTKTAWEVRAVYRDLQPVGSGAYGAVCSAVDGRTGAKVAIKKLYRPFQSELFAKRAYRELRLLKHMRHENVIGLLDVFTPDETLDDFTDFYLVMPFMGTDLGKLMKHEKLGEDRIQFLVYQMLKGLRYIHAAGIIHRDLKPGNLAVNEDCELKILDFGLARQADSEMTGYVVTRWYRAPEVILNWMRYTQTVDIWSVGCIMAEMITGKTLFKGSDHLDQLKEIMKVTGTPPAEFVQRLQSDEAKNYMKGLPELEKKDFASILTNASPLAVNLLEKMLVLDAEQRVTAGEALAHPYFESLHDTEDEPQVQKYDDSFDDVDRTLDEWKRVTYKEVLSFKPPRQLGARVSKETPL

[6] = target: Serine/threonine-protein kinase PAK 6 (Homo sapiens) (UniProt Q9NQU5); test: PAK6(h) Eurofins kinase panel; settings: Compound concentration 1.0 uM
Sequence of Serine/threonine-protein kinase PAK 6 (Homo sapiens) (Q9NQU5 whole entry, looked up): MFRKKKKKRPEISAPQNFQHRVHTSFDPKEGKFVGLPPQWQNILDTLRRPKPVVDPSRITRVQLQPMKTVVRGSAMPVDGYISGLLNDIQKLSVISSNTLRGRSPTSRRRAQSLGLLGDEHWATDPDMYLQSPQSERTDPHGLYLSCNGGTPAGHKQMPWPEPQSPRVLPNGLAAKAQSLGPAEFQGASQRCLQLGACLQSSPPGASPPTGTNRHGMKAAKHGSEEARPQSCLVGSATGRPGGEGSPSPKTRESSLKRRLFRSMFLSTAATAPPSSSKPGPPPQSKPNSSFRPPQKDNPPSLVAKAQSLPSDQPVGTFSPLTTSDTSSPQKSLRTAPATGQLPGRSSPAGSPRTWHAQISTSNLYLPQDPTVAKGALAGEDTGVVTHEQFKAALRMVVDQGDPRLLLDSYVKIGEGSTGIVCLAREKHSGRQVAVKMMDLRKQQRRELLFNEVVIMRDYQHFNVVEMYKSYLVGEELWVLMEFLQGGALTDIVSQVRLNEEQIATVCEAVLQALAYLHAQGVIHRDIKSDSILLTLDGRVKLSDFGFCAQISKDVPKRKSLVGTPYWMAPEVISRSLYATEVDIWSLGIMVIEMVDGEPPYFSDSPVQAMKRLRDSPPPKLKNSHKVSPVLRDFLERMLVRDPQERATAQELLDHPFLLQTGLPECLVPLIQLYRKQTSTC

[7] = target: T4, Tyrosine-protein kinase Mer (Homo sapiens) (UniProt Q12866); test: Mer(h) Eurofins kinase panel; settings: Compound concentration 1.0 uM
T4 sequence (whole entry): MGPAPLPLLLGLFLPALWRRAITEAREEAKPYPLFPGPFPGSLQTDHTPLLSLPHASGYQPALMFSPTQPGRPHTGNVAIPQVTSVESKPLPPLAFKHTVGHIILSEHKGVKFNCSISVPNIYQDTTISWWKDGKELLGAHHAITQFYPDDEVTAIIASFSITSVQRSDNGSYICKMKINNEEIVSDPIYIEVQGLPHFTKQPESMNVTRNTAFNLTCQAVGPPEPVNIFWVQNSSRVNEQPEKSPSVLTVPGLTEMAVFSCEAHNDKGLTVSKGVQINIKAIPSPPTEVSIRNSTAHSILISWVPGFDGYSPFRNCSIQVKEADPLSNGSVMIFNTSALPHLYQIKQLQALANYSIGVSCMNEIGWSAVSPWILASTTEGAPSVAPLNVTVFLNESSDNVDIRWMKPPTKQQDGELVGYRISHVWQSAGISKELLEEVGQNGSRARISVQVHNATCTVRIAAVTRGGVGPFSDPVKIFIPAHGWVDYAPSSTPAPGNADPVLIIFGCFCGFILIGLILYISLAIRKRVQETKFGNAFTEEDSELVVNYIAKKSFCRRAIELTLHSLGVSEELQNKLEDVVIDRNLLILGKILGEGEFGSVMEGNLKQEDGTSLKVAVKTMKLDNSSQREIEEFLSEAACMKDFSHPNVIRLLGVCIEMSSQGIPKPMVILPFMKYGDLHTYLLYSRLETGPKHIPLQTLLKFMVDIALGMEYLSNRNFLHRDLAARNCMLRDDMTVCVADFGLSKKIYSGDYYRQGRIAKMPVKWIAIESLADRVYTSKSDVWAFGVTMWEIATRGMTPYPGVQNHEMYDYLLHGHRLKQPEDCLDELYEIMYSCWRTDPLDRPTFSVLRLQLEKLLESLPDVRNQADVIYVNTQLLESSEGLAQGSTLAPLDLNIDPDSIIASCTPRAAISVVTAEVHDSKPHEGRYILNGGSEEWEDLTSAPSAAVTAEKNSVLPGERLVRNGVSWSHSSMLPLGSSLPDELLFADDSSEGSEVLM

Sequence of mTOR/FKBP12A/FKBP12B (Homo sapiens) (P62942 2-108 limits assumed, other chains not shown): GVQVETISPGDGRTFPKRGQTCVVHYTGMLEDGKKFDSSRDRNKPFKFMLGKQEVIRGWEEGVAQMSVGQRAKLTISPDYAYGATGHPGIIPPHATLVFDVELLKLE
Sequence of mTOR/FKBP12A/FKBP12B (Homo sapiens) (P68106 whole entry partner, other chains not shown): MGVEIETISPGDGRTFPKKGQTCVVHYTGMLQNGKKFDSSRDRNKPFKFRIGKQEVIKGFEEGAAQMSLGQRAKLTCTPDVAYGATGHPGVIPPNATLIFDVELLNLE

CCc1ccccc1C(=O)Nc1n[nH]c2c(C)c(F)c(C3C(C#N)=C(C)N(C)C(C)=C3C#N)cc12 [BAY-3827]
% residual kinase activity [1]: 98%
% residual kinase activity [2]: 62%
% residual kinase activity [3]: 105%
% residual kinase activity [4]: 92%
Cell Proliferation IC50 (MDA-MB-231): >30 µM
% residual kinase activity [5]: 106%
% residual kinase activity [6]: 86%
% residual kinase activity [7]: 96%
